Measurements published in US10470991B2, “(R)-N-(adamantyl-2-yl)pyrrolidine-2-carboxamide derivatives for cosmetic use” (DSM IP ASSETS B.V., priority 2015, dated 2019).
Where a name gives a salt, the structure may show the parent alone.

What was measured:
[1] = target: T1, 11β-HSD1 (Homo sapiens, UniProt P28845); assay: Inhibition of 11-beta-hydroxysteroid dehydrogenase type 1, activity assay in cell lysates (HEK-293 HHH7 clone, radiolabeled cortisone, TLC); format: biochemical; set-up: expressed in transfected cells; host or cells: HEK-293 (HHH7 clone), used as cell lysate; details: inhibitor 300 nM, 10 min 37° C.
Method: The cells were then washed with phosphate-buffered saline, and centrifuged for 4 min at 150×g. After removal of the supernatants, cell pellets were snap frozen on dry ice and stored at −80° C. until further use.
Cell lysates were incubated for 10 min at 37° C. in TS2 buffer (100 mM NaCl, 1 mM EGTA, 1 mM EDTA, 1 mM MgCl2, 250 mM sucrose, 20 mM Tris-HCl, pH 7.4) in a final volume of 22.2 μL containing either solvent (0.1% DMSO) or the inhibitor at the respective concentration as indicated in table 3-1.
Reactions were stopped after 10 min by adding an excess of unlabeled cortisone and cortisol (1:1, 2 mM, in methanol). The steroids were separated by TLC, using methanol-chloroform (1:9) as solvent, followed by scintillation counting and calculation of substrate concentration.

[2] = target: T1, 11β-HSD1; assay: Human keratinocytes assay: 11β-HSD1 activity (cortisol level in supernatant after cortisone treatment); format: cell-based; set-up: Primary human skin keratinocytes obtained from CellNTec advanced Cell Systems; host or cells: primary human skin keratinocytes; details: 1000 nM cortisone, 48 h, primary human keratinocytes
Method: Cell Culture: Primary human skin keratinocytes obtained from CellNTec advanced Cell Systems were maintained in CnT-PR medium at 37° C. in a humidified 5% CO2-air atmosphere. Cells were subcultured before reaching confluence.
Assessment of 11β-HSD1 Activity: Human primary keratinocytes were pre-cultured in complete culture media (CnT-PR, CellNTec) to 90% of confluence. Subsequently cells were washed twice with PBS-buffer to remove remaining corticosteroids and media were exchanged to custom made hydrocortisone-free media. 48 h later cell culture supernatant was collected and cortisol levels were assessed with the Cortisol Parameter Assay Kit (R&D Systems) following the instructions of the protocol and using a Multiskan Ascent plate reader (Labsystems).
Calculation: % remaining 11β-HSD1 activity=(cortisol-level with inhibitor/cortisol-level without inhibitor)*100%

[3] = tested on: Human skin from abdominal plastic surgery; assay: Total dermal collagen after cortisone and cortisone/inhibitor treatment (human skin samples in culture, Picrosirius Red staining); format: cell-based; details: for Dermal collagen (score, untreated sample set to 100%): topical daily
Method: Human skin from abdominal plastic surgery was used. The skin samples were cut in pieces of ˜8×3 mm (Ø×thickness) and cultured up to day 6 in an air-liquid interface in a perforated ring of stainless steel in contact with a culture medium (modified Williams'E medium), while renewing the culture medium on day 3. Six skin specimens were used for each test sample. Each test sample (4 μl) was applied topically on top of each piece after cleaning of the surface with a cotton pad, which was subsequently covered with a 6 Ø mm delivery membrane, this procedure was repeated daily. After 6 days skin sections were stained with Picrosirius Red histochemical staining, that dyes collagen fibers in purple-red. The papillary dermis was selected for the analysis. The different colors of the pictures were separated by using a deconvolution matrix. After deconvolution only pink-reddish images are used. Within these images the evaluation of dermal collagen was performed by estimating both color intensity and distribution with IMAGE J (NIH) analysis software. Two slides of each skin sample were processed by image acquisition and related analysis (i.e. 12 images for each treatment).

T1 sequence (P28845 whole entry): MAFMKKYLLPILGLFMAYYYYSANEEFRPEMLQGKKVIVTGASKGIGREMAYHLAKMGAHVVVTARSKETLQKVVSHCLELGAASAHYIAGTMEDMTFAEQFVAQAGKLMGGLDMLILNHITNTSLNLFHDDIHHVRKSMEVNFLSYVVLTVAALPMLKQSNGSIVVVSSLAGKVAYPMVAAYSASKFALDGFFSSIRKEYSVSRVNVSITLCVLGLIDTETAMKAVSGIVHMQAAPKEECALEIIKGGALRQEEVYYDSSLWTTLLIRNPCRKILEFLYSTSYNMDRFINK

Row | Structure (SMILES) | 11β-HSD1 Remaining activity [% of control] [1] | remaining 11β-HSD1 activity ([2]; 3.16 nM inhibitor) [%] | remaining 11β-HSD1 activity ([2]; 10.00 nM inhibitor) [%] | remaining 11β-HSD1 activity ([2]; 31.62 nM inhibitor) [%] | remaining 11β-HSD1 activity ([2]; 100.00 nM inhibitor) [%] | remaining 11β-HSD1 activity ([2]; 316.20 nM inhibitor) [%] | remaining 11β-HSD1 activity ([2]; 1000.00 nM inhibitor) [%] | other results
1 | CC(=O)N[C@@H](Cc1ccc(F)cc1)C(=O)N1CCC[C@@H]1C(=O)NC1C2CC3CC(C2)CC1C3 (stereo partly drawn) [(I-h), (R)-1-((S)-2-acetamido-3-(4-fluorophenyl)propanoyl)-N-(adamantan-2-yl)-pyrrolidine-2-carboxamide] | 37 % of control | 100 | 106 | 89 | 78 | 52 | 25 | –
2 | C[C@H](N)C(=O)NCC(=O)NCCN1CCC[C@@H]1C(=O)NC1C2CC3CC(C2)CC1C3 (stereo partly drawn) [(I-o), (R)-N-(adamantan-2-yl)-1-(2-(2-((S)-2-aminopropanamido)acetamido)ethyl)pyrrolidine-2-carboxamide bistrifluoroacetate] | 43 % of control | – | – | – | – | – | – | –
3 | CCOc1ccc(C[C@H](N)C(=O)N2CCC[C@@H]2C(=O)NC2C3CC4CC(C3)CC2C4)cc1 (stereo partly drawn) [(I-k), (R)-N-(adamantan-2-yl)-1-((S)-2-amino-3-(4-ethoxyphenyl)propanoyl)pyrrolidine-2-carboxamide trifluoroacetate] | 41 % of control | 95 | 100 | 89 | 80 | 58 | 36 | –
4 | C[C@]12CCC(=O)C=C1CC[C@@H]1[C@@H]2C(=O)C[C@@]2(C)[C@H]1CC[C@]2(O)C(=O)CO [cortisone, reference compound] | – | – | – | – | – | – | – | Dermal collagen (score, untreated sample set to 100%) ([3]; cortisone 0.1 μM in DMSO alone, day 6, positive control for collagen inhibition): 77%
5 | CC(=O)N[C@@H](Cc1ccc(C#N)cc1)C(=O)N1CCC[C@@H]1C(=O)NC1C2CC3CC(C2)CC1C3 (stereo partly drawn) [(I-l), (R)-1-((S)-2-acetamido-3-(4-cyanophenyl)-propanoyl)-N-(adamantan-2-yl)pyrrolidine-2-carboxamide] | 24 % of control | 94 | 92 | 76 | 57 | 28 | 12 | Increase versus cortisone (#2) ([3]; 10 μM in DMSO, day 6): +4%; Dermal collagen (score, untreated sample set to 100%) ([3]; 10 μM in DMSO, day 6, cortisone/inhibitor treatment): 80%; Increase versus cortisone (#2) ([3]; 100 μM in DMSO, day 6): +17%; Dermal collagen (score, untreated sample set to 100%) ([3]; 100 μM in DMSO, day 6, cortisone/inhibitor treatment): 90%; Increase versus cortisone (#2) ([3]; 200 μM in DMSO, day 6): +24%; Dermal collagen (score, untreated sample set to 100%) ([3]; 200 μM in DMSO, day 6, cortisone/inhibitor treatment): 96%
6 | NCC(=O)N[C@@H](Cc1c[nH]c2ccccc12)C(=O)N1CCC[C@@H]1C(=O)NC1C2CC3CC(C2)CC1C3 (stereo partly drawn) [(I-q), (R)-N-(adamantan-2-yl)-1-(glycyl-L-tryptophyl)pyrrolidine-2-carboxamide trifluoroacetate] | 69 % of control | – | – | – | – | – | – | –
7 | C[C@H](NC(=O)CN)C(=O)NCCN1CCC[C@@H]1C(=O)NC1C2CC3CC(C2)CC1C3 (stereo partly drawn) [(I-p), (R)-N-(adamantan-2-yl)-1-(2-((S)-2-(2-aminoacetamido)propanamido)ethyl)pyrrolidine-2-carboxamide bistrifluoroacetate] | 57 % of control | – | – | – | – | – | – | –
